Among the data in article PMC6326728, “eIF2B activator prevents neurological defects caused by a chronic integrated stress response” (eLife, 2019) are EC50 and inhibition values, retold here.

Molecules are shown by their SMILES.

One assay concerns the target T1, eIF2B (Mus musculus, UniProt Q61749+Q99LD9).
T1 construct: gene Eif2b2; native endogenous complex in lysate of mouse embryonic fibroblasts; decamer of five subunits; with Translation initiation factor eIF2B subunit alpha; Translation initiation factor eIF2B subunit gamma; Translation initiation factor eIF2B subunit epsilon
Briefly: GEF assay, Bodipy-FL-GDP release from eIF2, fluorescence. Format: biochemical. The conditions noted are these: activator; MEF lysate 0.1 mg/mL; 25 nM Bodipy-FL-GDP-loaded eIF2; 3 nM phospho-eIF2; 0.1 mM GDP; 25°C; homozygous R191H MEF lysate.

The target in another assay is T2, a1A (h) (Homo sapiens, UniProt P35348).
T2 construct: gene ADRA1A
The experiment in a line: biochemical. More on the design: CEREP panel radioligand binding displacement, % inhibition of control specific binding by 10 uM 2BAct. The conditions noted are these: Type=Antagonist radioligand; read-out: % inhibition of Control specific binding. As for the experimental part:
(§1) Supplementary file elife-42940-supp1.xlsx: Supplementary file 1. (A) Binding of 2BAct at 10 μM to the CEREP panel of receptors/enzymes/ion channels. Compound binding was calculated as a % inhibition of the binding of a radioactively labeled ligand specific for each target. Results showing inhibition or stimulation higher than 50% are considered to represent significant effects of the test compound. (B) Pharmacokinetic data from 2BAct dosing in mice. (C) GO Biological Processes identified by enrichment analysis of RNA-seq data. (D) List of genes used for enrichment analysis of scRNA-seq data.

For a further assay, the target named is T3, 5-HT1B (Rattus norvegicus, UniProt P28564).
T3 construct: gene Htr1b
Briefly: biochemical. More on the design: CEREP panel radioligand binding displacement, % inhibition of control specific binding by 10 uM 2BAct. As to conditions: Type=Antagonist radioligand; read-out: % inhibition of Control specific binding. As for the experimental part: as §1

The next assay has as its target T4, 5-HT2B (h) (Homo sapiens, UniProt P41595).
T4 construct: gene HTR2B
Briefly: biochemical. More on the design: CEREP panel radioligand binding displacement, % inhibition of control specific binding by 10 uM 2BAct. As to conditions: Type=Agonist radioligand; read-out: % inhibition of Control specific binding. As for the experimental part:
as §1

In a further assay the target is T5, 5-HT4E (h) (Homo sapiens, UniProt Q13639).
T5 construct: gene HTR4; isoform 4E
T5 sequence (Q13639 whole entry, canonical isoform): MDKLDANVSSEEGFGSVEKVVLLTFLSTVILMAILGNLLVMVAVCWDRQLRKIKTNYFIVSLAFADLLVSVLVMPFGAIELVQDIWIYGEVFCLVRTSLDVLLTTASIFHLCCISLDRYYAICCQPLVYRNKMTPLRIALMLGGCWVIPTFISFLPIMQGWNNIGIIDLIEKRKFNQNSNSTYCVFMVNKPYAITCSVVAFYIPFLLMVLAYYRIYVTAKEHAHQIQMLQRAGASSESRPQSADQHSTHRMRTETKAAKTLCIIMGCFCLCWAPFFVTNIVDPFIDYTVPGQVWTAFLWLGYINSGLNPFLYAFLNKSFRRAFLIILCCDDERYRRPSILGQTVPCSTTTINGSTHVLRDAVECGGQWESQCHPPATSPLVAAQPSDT
Briefly: biochemical. More on the design: CEREP panel radioligand binding displacement, % inhibition of control specific binding by 10 uM 2BAct. The conditions noted are these: Type=Antagonist radioligand; read-out: % inhibition of Control specific binding. As for the experimental part: as §1

The next assay addresses T6, motilin (h) (Homo sapiens, UniProt O43193).
T6 construct: gene MLNR
Briefly: biochemical. More on the design: CEREP panel radioligand binding displacement, % inhibition of control specific binding by 10 uM 2BAct. As to conditions: Type=Agonist radioligand; read-out: % inhibition of Control specific binding. The protocol: as §1

The next assay addresses T7, D1 (h) (Homo sapiens, UniProt P21728).
T7 construct: gene DRD1
Briefly: biochemical. More on the design: CEREP panel radioligand binding displacement, % inhibition of control specific binding by 10 uM 2BAct. As to conditions: Type=Antagonist radioligand; read-out: % inhibition of Control specific binding. As for the experimental part: as §1

In another assay the target is T8, Y1 (h) (Homo sapiens, UniProt P25929).
T8 construct: gene NPY1R
T8 sequence (P25929 whole entry): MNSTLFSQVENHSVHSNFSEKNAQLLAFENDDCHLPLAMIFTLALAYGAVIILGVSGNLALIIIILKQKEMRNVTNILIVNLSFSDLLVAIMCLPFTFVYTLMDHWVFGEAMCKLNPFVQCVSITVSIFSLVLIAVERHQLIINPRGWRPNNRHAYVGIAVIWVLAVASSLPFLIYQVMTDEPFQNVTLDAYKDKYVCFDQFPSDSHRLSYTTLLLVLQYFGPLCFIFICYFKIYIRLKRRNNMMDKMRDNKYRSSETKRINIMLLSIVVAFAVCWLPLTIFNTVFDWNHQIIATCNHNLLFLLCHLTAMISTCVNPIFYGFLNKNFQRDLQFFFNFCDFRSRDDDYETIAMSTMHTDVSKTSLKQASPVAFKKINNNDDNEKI
The experiment in a line: biochemical. More on the design: CEREP panel radioligand binding displacement, % inhibition of control specific binding by 10 uM 2BAct. The conditions noted are these: Type=Agonist radioligand; read-out: % inhibition of Control specific binding. As for the experimental part: as §1

Assay [1] has as its target T9, norepinephrine transporter (h) (Homo sapiens, UniProt P23975).
T9 construct: gene SLC6A2
Briefly: biochemical. More on the design: CEREP panel radioligand binding displacement, % inhibition of control specific binding by 10 uM 2BAct. As to conditions: Type=Antagonist radioligand; read-out: % inhibition of Control specific binding. As for the experimental part: as §1

The target in the next assay is T10, dopamine transporter (h) (Homo sapiens, UniProt Q01959).
T10 construct: gene SLC6A3
The experiment in a line: biochemical. More on the design: CEREP panel radioligand binding displacement, % inhibition of control specific binding by 10 uM 2BAct. The conditions noted are these: Type=Antagonist radioligand; read-out: % inhibition of Control specific binding. The protocol: as §1

The next assay concerns the target T11, AT1 (h) (Homo sapiens, UniProt P30556).
T11 construct: gene AGTR1
The experiment in a line: biochemical. More on the design: CEREP panel radioligand binding displacement, % inhibition of control specific binding by 10 uM 2BAct. The conditions noted are these: Type=Antagonist radioligand; read-out: % inhibition of Control specific binding. As for the experimental part:
as §1

A further assay has as its target T12, H1 (h) (Homo sapiens, UniProt P35367).
T12 construct: gene HRH1
The experiment in a line: biochemical. More on the design: CEREP panel radioligand binding displacement, % inhibition of control specific binding by 10 uM 2BAct. As to conditions: Type=Antagonist radioligand; read-out: % inhibition of Control specific binding. The protocol:
as §1

The next assay addresses T13, 5-HT7 (h) (Homo sapiens, UniProt P34969).
T13 construct: gene HTR7
Briefly: biochemical. More on the design: CEREP panel radioligand binding displacement, % inhibition of control specific binding by 10 uM 2BAct. As to conditions: Type=Agonist radioligand; read-out: % inhibition of Control specific binding. As for the experimental part: as §1

Another assay addresses T14, ET-A (h) (Homo sapiens, UniProt P25101).
T14 construct: gene EDNRA
Briefly: biochemical. As to conditions: Type=Agonist radioligand; read-out: % inhibition of Control specific binding. More on the design: CEREP panel radioligand binding displacement, % inhibition of control specific binding by 10 uM 2BAct. As for the experimental part: as §1

Another assay deals with PPARg (h) (Homo sapiens, UniProt P37231). Briefly: biochemical. More on the design: CEREP panel radioligand binding displacement, % inhibition of control specific binding by 10 uM 2BAct. The conditions noted are these: Type=Agonist radioligand; read-out: % inhibition of Control specific binding. The protocol: as §1
Chain of PPARg (h) (P37231 whole entry): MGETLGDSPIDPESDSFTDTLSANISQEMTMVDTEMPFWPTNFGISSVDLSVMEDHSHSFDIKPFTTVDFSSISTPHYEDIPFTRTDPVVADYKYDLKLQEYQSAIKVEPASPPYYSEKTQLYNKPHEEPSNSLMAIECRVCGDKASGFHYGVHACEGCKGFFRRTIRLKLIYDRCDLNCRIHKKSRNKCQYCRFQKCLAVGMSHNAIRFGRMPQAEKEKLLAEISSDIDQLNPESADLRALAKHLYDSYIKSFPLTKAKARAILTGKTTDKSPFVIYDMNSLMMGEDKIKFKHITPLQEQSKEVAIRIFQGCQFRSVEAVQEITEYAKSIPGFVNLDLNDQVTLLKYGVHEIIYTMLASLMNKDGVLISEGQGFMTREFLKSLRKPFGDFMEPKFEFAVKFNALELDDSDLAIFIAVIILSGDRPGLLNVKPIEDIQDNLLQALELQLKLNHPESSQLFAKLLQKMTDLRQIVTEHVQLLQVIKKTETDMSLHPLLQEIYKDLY
The target in a further assay is T15, a2A (h) (Homo sapiens, UniProt P08913).
T15 construct: gene ADRA2A
Briefly: biochemical. More on the design: CEREP panel radioligand binding displacement, % inhibition of control specific binding by 10 uM 2BAct. As to conditions: Type=Antagonist radioligand; read-out: % inhibition of Control specific binding. The protocol: as §1

A further assay addresses T16, 5-HT2C (h) (Homo sapiens, UniProt P28335).
T16 construct: gene HTR2C
The experiment in a line: biochemical. As to conditions: Type=Antagonist radioligand; read-out: % inhibition of Control specific binding. More on the design: CEREP panel radioligand binding displacement, % inhibition of control specific binding by 10 uM 2BAct. As for the experimental part: as §1

Another assay addresses T17, D2S (h) (Homo sapiens, UniProt P14416).
T17 construct: gene DRD2; short isoform (D2S)
Briefly: biochemical. More on the design: CEREP panel radioligand binding displacement, % inhibition of control specific binding by 10 uM 2BAct. The conditions noted are these: Type=Antagonist radioligand; read-out: % inhibition of Control specific binding. The protocol:
as §1

A further assay deals with T18, H2 (h) (Homo sapiens, UniProt P25021).
T18 construct: gene HRH2
T18 sequence (P25021 whole entry): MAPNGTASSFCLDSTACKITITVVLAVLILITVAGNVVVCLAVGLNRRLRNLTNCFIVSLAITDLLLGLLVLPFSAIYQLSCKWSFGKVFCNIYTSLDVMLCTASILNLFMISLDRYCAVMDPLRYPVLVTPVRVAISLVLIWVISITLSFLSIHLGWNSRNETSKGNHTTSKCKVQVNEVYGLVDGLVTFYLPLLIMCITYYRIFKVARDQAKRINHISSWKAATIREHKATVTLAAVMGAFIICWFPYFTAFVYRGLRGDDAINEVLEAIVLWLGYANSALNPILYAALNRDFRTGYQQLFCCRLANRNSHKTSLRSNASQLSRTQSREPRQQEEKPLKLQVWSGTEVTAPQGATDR
Briefly: biochemical. More on the design: CEREP panel radioligand binding displacement, % inhibition of control specific binding by 10 uM 2BAct. The conditions noted are these: Type=Antagonist radioligand; read-out: % inhibition of Control specific binding. The protocol: as §1

A further assay addresses T19, M5 (h) (Homo sapiens, UniProt P08912).
T19 construct: gene CHRM5
Briefly: biochemical. As to conditions: Type=Antagonist radioligand; read-out: % inhibition of Control specific binding. More on the design: CEREP panel radioligand binding displacement, % inhibition of control specific binding by 10 uM 2BAct. The protocol:
as §1

For the next assay, the target named is T20, NK1 (h) (Homo sapiens, UniProt P25103).
T20 construct: gene TACR1
The experiment in a line: biochemical. More on the design: CEREP panel radioligand binding displacement, % inhibition of control specific binding by 10 uM 2BAct. The conditions noted are these: Type=Agonist radioligand; read-out: % inhibition of Control specific binding. As for the experimental part:
as §1

T17 sequence (P14416 whole entry, canonical isoform): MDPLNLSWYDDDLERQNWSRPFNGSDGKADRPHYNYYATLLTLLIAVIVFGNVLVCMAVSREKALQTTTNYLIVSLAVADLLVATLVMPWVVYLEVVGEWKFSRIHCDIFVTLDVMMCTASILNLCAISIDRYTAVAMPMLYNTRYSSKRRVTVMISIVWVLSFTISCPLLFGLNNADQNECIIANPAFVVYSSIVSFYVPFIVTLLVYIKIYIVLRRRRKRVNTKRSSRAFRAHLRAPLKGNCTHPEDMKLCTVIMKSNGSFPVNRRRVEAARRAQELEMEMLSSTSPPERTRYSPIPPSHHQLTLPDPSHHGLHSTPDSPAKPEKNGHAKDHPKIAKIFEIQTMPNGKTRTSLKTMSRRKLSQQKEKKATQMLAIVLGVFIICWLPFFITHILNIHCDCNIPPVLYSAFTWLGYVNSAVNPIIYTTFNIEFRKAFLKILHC
T6 sequence (O43193 whole entry): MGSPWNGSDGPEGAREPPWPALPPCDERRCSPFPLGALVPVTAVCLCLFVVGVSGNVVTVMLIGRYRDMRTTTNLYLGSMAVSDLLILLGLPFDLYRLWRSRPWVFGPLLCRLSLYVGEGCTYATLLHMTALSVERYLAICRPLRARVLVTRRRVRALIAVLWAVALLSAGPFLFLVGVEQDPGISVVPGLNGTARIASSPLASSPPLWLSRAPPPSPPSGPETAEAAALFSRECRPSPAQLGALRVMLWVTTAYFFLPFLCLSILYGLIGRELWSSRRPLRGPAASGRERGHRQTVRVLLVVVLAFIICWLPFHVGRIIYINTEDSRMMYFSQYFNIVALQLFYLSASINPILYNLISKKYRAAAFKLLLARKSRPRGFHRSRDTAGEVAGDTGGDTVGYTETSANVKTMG
T11 sequence (P30556 whole entry): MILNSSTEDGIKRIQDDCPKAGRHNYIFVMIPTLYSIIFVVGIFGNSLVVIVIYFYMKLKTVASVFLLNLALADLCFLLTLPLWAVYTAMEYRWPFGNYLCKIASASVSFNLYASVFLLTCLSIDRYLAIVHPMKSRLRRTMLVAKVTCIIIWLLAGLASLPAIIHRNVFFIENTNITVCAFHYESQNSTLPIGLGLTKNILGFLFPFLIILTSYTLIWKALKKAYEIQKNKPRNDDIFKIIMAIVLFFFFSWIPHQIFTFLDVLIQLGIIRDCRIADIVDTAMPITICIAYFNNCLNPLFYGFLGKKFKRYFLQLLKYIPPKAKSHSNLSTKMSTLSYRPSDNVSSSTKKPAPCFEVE
T4 sequence (P41595 whole entry): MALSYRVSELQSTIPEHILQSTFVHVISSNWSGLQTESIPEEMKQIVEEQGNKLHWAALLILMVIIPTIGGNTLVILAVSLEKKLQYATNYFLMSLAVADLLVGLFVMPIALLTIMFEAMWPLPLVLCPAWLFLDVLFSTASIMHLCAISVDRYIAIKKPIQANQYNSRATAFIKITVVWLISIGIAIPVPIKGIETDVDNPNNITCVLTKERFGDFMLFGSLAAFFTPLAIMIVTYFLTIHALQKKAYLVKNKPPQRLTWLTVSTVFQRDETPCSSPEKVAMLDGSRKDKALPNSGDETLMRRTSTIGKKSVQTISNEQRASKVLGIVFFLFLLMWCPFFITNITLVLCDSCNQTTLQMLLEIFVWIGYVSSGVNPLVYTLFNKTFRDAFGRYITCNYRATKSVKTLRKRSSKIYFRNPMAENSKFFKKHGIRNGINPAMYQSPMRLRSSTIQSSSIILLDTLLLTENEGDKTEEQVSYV
T19 sequence (P08912 whole entry): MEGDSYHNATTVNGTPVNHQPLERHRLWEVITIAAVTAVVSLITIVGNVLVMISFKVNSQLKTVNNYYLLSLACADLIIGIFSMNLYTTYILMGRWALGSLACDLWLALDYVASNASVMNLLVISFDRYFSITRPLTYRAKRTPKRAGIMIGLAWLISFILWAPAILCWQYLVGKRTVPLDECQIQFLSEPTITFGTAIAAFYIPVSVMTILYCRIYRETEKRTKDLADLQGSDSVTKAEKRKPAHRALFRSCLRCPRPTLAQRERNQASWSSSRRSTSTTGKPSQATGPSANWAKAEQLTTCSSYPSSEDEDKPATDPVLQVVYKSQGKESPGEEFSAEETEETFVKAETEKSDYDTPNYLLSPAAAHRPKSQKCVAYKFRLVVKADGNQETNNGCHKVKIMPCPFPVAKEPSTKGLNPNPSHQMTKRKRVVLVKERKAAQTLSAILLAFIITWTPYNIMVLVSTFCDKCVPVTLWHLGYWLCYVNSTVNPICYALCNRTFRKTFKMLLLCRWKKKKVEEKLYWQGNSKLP
T14 sequence (P25101 whole entry): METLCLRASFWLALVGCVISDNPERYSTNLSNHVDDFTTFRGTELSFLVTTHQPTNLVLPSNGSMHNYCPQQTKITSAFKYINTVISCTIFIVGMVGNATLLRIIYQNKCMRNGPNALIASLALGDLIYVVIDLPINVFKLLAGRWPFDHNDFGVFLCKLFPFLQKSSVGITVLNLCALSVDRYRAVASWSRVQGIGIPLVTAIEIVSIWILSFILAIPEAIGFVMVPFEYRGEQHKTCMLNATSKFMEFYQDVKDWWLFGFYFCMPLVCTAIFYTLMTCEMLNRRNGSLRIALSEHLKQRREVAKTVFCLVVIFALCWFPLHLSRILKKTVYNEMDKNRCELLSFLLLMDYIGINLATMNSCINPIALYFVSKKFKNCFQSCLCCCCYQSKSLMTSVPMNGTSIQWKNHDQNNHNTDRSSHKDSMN
T16 sequence (P28335 whole entry): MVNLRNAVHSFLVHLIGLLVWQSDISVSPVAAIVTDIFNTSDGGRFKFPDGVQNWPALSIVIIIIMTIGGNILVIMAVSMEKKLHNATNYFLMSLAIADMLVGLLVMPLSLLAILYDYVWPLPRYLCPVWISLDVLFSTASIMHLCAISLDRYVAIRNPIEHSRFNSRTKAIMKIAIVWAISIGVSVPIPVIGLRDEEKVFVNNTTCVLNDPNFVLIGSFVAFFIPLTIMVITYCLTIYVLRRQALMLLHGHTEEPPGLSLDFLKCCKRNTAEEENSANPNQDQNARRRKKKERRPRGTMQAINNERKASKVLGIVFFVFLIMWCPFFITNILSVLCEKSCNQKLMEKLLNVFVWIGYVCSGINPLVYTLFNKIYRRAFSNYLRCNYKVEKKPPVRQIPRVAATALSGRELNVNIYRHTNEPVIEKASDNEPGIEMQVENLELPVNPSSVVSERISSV

`O=C(COc1ccc(Cl)c(F)c1)NC12CC(NC(=O)c3cnc(C(F)F)cn3)(C1)C2` [2BAct] gave an EC50 at eIF2B of 7.3 nM. Moreover, the inhibition at 10 µM is 6.6% on a1A (h); -8.8% on 5-HT1B; 8.6% on 5-HT2B (h); 8.2% at 5-HT4E (h); -10.8% on motilin (h); 5.9% on D1 (h). Moreover, the inhibition at 10 µM was -17.4% at Y1 (h); 61% in assay [1]; 53.2% on dopamine transporter (h); 13.2% on AT1 (h); 0.2% at H1 (h); 3.9% on 5-HT7 (h). Moreover, the inhibition at 10 µM on ET-A (h) was -5.3%; at PPARg (h) it was 19%; on a2A (h), -5.5%; on 5-HT2C (h), 38.7%; on D2S (h) it was 1.3%; on H2 (h) it was -17.4%. Also, the figures for the inhibition at 10 µM on M5 (h) and on NK1 (h) were 11.8% and 29.1%, respectively.
